“Also recorded” adds a separate entry of the source.
Assay: Incorporation of vancomycin into acid-catalyzed (AC) and acid-base catalyzed (ABC) sols: clear vs cloudy (precipitation)
Type: physicochemical
Procedure: TEOS (10 ml) and 0.1 M HCl (2.4 ml), with or without the addition of deionized water, were mixed using a magnetic stirrer until a one-phase sol was formed. The water/TEOS molar ratio varied from 0 to 10. Pharmaceutical agents were then added to the sol. For example, Sols with 20 mg/g and 30 mg/g of vancomycin (drug to SiO2 ratio), and sols with 50 mg/g and 80 mg/g of bupivacaine per gram SiO2 were made by adding corresponding amounts of the drug. The sol containing added pharmaceutical agents was mixed for 30 minutes at 660 rpm and was then allowed to stand for 15 minutes. Subsequently, 0.08 M NH4OH (2.2-2.4 ml) was added dropwise to the sol, which was stirred at 660 rpm targeting a final pH of about 5.5. Under these conditions, the time to gelation varied from about 20 and 40 minutes. Upon mixing, the sol was added dropwise into vegetable oil stirred at speeds between 220 and 440 rpm and microspheres precipitated to the bottom of the beaker. Microspheres were filtered through a 70 μm nylon microporous filter and then rinsed with DI water and alcohol. The microspheres were left to dry overnight in a laminar flow hood.
Vancomycin (vancomycin-HCl; Abbott Labs, Chicago, Ill.) dissolved in water at 100 mg/ml was used for incorporation into the sols. Bupivacaine (Spectrum, New Brunswick, N.J.) dissolved in methanol at 70 mg/ml was also used for incorporation into the sols.
The effect of water content on the incorporation of vancomycin into the sol was studied by using either “water-free” (no additional water added other than that contained in the aqueous HCl solution) acid-catalyzed sols or sols with added water/TEOS molar ratios (R) of 5, 6, 8, and 10. […] When water was added at R=4, low doses of vancomycin such as 16.7 mg/g SiO2 could be added to the acid-catalyzed sol.

## CN[C@H](CC(C)C)C(=O)N[C@H]1C(=O)N[C@@H](CC(N)=O)C(=O)N[C@H]2C(=O)N[C@H]3C(=O)N[C@H](C(=O)N[C@H](C(=O)O)c4cc(O)cc(O)c4-c4cc3ccc4O)[C@H](O)c3ccc(c(Cl)c3)Oc3cc2cc(c3O[C@@H]2O[C@H](CO)[C@@H](O)[C@H](O)[C@H]2O[C@H]2C[C@](C)(N)[C@H](O)[C@H](C)O2)Oc2ccc(cc2Cl)[C@H]1O [Vancomycin, vancomycin]
water-free AC sol, vancomycin loading 16.7 mg/g
  appearance of sol on incorporation of vancomycin: cloudy
water/TEOS R=4, ABC sol (after base), loading 16.7 mg/g
  appearance of sol on incorporation of vancomycin: precipitation of vancomycin was seen; also recorded: cloudy
water/TEOS R=4, AC sol, loading 16.7 mg/g
  appearance of sol on incorporation of vancomycin: clear
water/TEOS R=5, ABC sol (after base), loading 28 mg/g
  appearance of sol on incorporation of vancomycin: vancomycin precipitation was observed; also recorded: cloudy
water/TEOS R=5, ABC sol, loading 16.7 mg/g
  appearance of sol on incorporation of vancomycin: clear
water/TEOS R=5, ABC sol, loading 22.2 mg/g
  appearance of sol on incorporation of vancomycin: clear
water/TEOS R=5, AC sol, loading 16.7 mg/g
  appearance of sol on incorporation of vancomycin: clear
water/TEOS R=5, AC sol, loading 22.2 mg/g
  appearance of sol on incorporation of vancomycin: clear
water/TEOS R=5, AC sol, loading 28 mg/g
  appearance of sol on incorporation of vancomycin: clear
water/TEOS R=5, doses up to 20 mg/g SiO2
  precipitation after the addition of the drug and base: no precipitation was observed
water/TEOS R=8, ABC sol, loading 22.2 mg/g
  appearance of sol on incorporation of vancomycin: clear
water/TEOS R=8, ABC sol, loading 33 mg/g
  appearance of sol on incorporation of vancomycin: clear
water/TEOS R=8, AC sol, loading 22.2 mg/g
  appearance of sol on incorporation of vancomycin: clear
water/TEOS R=8, AC sol, loading 33 mg/g
  appearance of sol on incorporation of vancomycin: clear
water/TEOS R=10, ABC sol, loading 22.2 mg/g
  appearance of sol on incorporation of vancomycin: clear
water/TEOS R=10, AC sol, loading 22.2 mg/g
  appearance of sol on incorporation of vancomycin: clear
water/TEOS ratios 8 and above, load such as 28 mg/g SiO2
  incorporation of higher loads into the sol: successfully incorporated
